Reference: patent publication US5948807A (priority 1997, dated 1999)
Structures can show the parent of a compound that is named as a salt.

Assays:
[1] = target: kappa opioid receptor (Homo sapiens, UniProt P41145); assay: biochemical; type: binding
[2] = target: mu opioid receptor (Homo sapiens, UniProt P35372); assay: biochemical; type: binding
[3] = test system: serotonin transporter; assay: binding at serotonin transporter, comparison with SSRIs; settings: vs citalopram, sertraline and fluoxetine
[4] = target: SERT-1, cocaine binding site on the serotonin transporter (Homo sapiens, UniProt P31645); assay: biochemical
SERT-1, cocaine binding site on the serotonin transporter, sequence (P31645 whole entry): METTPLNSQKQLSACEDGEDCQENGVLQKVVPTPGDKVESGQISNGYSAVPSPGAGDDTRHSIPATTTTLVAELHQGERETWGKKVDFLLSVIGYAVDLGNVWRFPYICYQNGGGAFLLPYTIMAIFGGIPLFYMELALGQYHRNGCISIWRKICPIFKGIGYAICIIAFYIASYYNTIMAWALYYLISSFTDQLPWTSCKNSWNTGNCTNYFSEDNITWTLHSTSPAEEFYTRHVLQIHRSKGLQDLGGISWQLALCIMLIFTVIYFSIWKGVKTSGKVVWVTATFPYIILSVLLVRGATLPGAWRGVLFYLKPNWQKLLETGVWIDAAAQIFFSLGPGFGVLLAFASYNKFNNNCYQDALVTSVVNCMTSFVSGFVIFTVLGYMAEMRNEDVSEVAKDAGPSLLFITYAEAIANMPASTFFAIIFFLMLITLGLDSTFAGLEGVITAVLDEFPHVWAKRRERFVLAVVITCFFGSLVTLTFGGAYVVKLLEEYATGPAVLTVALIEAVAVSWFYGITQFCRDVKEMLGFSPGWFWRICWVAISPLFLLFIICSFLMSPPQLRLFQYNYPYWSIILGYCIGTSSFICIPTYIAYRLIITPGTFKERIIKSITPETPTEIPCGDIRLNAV

[5] = target: DAT, dopamine transporter (Homo sapiens, UniProt Q01959); assay: radioligand binding, DAT ([^3 H]WIN35,428); settings: radioligand [^3 H]WIN35,428; racemic; spiroindanamines as hydrochlorides; read-out: Affinity (IC50) DAT ([^3 H]WIN35,428)
DAT, dopamine transporter, sequence (Q01959 whole entry): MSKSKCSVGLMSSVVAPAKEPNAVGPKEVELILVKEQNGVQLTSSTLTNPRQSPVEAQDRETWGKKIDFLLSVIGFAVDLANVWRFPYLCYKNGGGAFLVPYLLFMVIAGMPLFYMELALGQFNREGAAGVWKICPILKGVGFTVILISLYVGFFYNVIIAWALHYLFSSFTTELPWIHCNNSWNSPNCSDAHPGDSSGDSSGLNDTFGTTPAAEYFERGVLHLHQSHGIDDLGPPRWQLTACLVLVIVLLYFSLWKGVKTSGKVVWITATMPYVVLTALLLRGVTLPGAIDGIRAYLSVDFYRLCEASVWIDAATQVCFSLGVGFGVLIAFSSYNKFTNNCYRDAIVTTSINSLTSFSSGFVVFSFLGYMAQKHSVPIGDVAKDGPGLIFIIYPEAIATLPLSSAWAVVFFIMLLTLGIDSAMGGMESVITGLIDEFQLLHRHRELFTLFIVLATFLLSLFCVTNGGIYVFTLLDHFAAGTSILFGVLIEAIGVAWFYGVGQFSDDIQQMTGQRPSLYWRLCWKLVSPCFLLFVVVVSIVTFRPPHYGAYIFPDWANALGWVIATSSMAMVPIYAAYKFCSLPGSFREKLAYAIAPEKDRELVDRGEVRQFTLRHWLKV

[6] = target: SERT-2, paroxetine binding site on the serotonin transporter (Homo sapiens, UniProt P31645); assay: biochemical
SERT-2, paroxetine binding site on the serotonin transporter, sequence (P31645 whole entry): as the sequence (P31645 whole entry) above

kappa opioid receptor, sequence (P41145 whole entry): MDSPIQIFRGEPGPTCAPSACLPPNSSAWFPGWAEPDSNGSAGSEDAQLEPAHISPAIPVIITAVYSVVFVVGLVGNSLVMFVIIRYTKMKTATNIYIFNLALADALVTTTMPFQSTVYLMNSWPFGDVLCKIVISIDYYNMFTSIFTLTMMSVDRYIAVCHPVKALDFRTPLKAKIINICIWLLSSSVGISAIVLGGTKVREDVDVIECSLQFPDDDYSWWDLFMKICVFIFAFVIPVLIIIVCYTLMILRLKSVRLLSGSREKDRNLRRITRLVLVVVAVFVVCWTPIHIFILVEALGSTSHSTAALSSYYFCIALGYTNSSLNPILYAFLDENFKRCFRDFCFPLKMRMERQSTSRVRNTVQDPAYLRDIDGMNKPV
mu opioid receptor, sequence (P35372 whole entry): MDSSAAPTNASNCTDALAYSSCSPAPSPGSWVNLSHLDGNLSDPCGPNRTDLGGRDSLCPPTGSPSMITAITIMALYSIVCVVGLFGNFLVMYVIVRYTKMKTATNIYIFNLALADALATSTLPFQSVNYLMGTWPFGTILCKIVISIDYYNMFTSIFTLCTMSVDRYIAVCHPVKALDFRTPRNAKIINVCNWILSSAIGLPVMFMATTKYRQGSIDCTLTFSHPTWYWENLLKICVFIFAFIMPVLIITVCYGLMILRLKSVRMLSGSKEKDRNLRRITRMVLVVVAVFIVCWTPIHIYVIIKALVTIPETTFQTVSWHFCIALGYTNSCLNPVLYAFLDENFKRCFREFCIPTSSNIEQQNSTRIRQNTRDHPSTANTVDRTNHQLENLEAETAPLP

Row | Structure (SMILES) | IC50 [1] [nM] | IC50 [2] [nM] | affinity for the serotonin transporter relative to SSRIs [3] | IC50 [4] [nM] | affinity for SERT-1 (in words) [4] | IC50 [5] [nM] | IC50 [6] [nM] | affinity at SERT-2 (in words) [6]
1 | COc1ccc2c(c1)C1(CCNC1)CC2c1ccc(Cl)c(Cl)c1 (racemic) [Compound 3c, 3-(3,4-Dichlorophenyl)-6-methoxyspiro[indan-1,3'-pyrrolidine]] | 80000 | 5000 | comparable to or higher than that of other specific serotonin re-uptake inhibitors (SSRIs) | 2 | low nanomolar affinity | 150 | 400 | moderate to weak affinity
2 | Oc1ccc2c(c1)C1(CCNC1)CC2c1ccc(Cl)c(Cl)c1 (racemic) [Compound 3d, 3-(3,4-Dichlorophenyl)-6-hydroxyspiro[indan-1,3'-pyrrolidine]] | 1520 | 2900 |  | 750 |  | 730 | 300 | 
3 | c1ccc(C2CC3(CCN(CC4CC4)C3)c3ccccc32)cc1 (racemic) [Compound 4a, 1'-Cyclopropylmethyl-3-phenylspiro[indan-1,3'-pyrrolidine] hydrochloride] | 1000 | 980 |  | 2410 |  | 2900 | 2000 | 
4 | c1ccc(C2CC3(CCNC3)c3ccccc32)cc1 (racemic) [Compound 3a, 3-Phenylspiro[indan-1,3'-pyrrolidine]] | 10000 | 500 | comparable to or higher than that of other specific serotonin re-uptake inhibitors (SSRIs) | 10 | low nanomolar affinity | 200 | 2500 | moderate to weak affinity
5 | COc1ccc2c(c1)C1(CC(=O)NC1=O)CC2c1ccc(Cl)c(Cl)c1 (racemic) [Compound 1c, 3-(3,4-Dichlorophenyl)-6-methoxyspiro[indan-1,3'-pyrrolidin]-2',5'-dione] | > 100000 | 100000 |  | 250 |  |  | > 100000 | higher affinity for SERT-2 than the basic spiroindanamines 3d and 4a
6 | O=C1C[C@@]2(C[C@@H](c3ccccc3)c3ccccc32)C(=O)N1 (relative stereo) [Compound 1a, cis-3-Phenylspiro[indan-1,3'-pyrrolidine]-2',5'-dione] | > 100000 | 100000 |  | 26700 |  |  | > 100000 | 
